Laboratory results taken from US12077503B2, “Substituted cyclic amides and their use as herbicides” (FMC CORPORATION, priority 2015, dated 2024).

Assays:
Format in all cases: in vivo
[1] = test system: redroot pigweed (Amaranthus retroflexus); test: Test G Post-Emergence Protocol
Method: Seeds of corn (Zea mays), giant foxtail (Setaria faberi), barnyardgrass (Echinochloa crus-galli), ivy-leaved morning glory (Ipomoea hederacea), redroot pigweed (Amaranthus retroflexus) and velvetleaf (Abutilon theophrasti) were sown in standard soil in pots. After cultivation for 8 days under controlled conditions in a glasshouse (at 24/16° C., day/night; 14 hours light; 65% humidity), the plants were sprayed with an aqueous spray solution derived from the formulation of the technical active ingredient in acetone/water (50:50) solution containing 0.5% Tween 20 (polyoxyethylene sorbitan monolaurate, CAS RN 9005-64-5) to give a final dose of 15.625, 62.5 or 250 g/ha of test compound.
The test plants were then grown on under controlled conditions in a glasshouse (at 24/16° C., day/night; 14 hours light; 65% humidity) and watered twice daily. After 13 days the test was evaluated (100=total damage to plant; 0=no damage to plant). A dash (-) means no test result.

[2] = test system: nutsedge, yellow (yellow nutsedge, Cyperus esculentus); test: Test C preemergence; settings: scale 0 to 100, 0 no effect, 100 complete control
In short: (§1)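 Assessment: visual, 13–15 d after treatment, 0 (no effect) to 100 (complete control) relative to controls. Treatment: preemergence to seeds in loam-sand soil, or postemergence to 1- to 4-leaf plants in peat-based medium. Formulation: non-phytotoxic solvent mixture with surfactant.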

[3] = test system: johnsongrass (Sorghum halepense); test: Test C preemergence; settings: scale 0 to 100, 0 no effect, 100 complete control
In short: as §1

[4] = test system: ragweed (common ragweed, Ambrosia elatior); test: Test C preemergence; settings: scale 0 to 100, 0 no effect, 100 complete control
In short: as §1

[5] = test system: crabgrass, large (large crabgrass, Digitaria sanguinalis); test: Test C preemergence; settings: scale 0 to 100, 0 no effect, 100 complete control
In short: as §1

[6] = test system: Galium (catchweed bedstraw, Galium aparine); test: Test C preemergence; settings: scale 0 to 100, 0 no effect, 100 complete control
In short: as §1

[7] = test system: ryegrass, Italian (Italian ryegrass, Lolium multiflorum); test: Test C preemergence; settings: scale 0 to 100, 0 no effect, 100 complete control
In short: as §1

[8] = test system: lambsquarters (Chenopodium album); test: Test C preemergence; settings: scale 0 to 100, 0 no effect, 100 complete control
In short: as §1

[9] = test system: wheat (winter wheat, Triticum aestivum); test: Test C preemergence; settings: scale 0 to 100, 0 no effect, 100 complete control
In short: as §1

corn (Zea mays) = test: Test C preemergence; settings: scale 0 to 100, 0 no effect, 100 complete control
In short: as §1

[10] = test system: barnyardgrass (Echinochloa crus-galli); test: Test C preemergence; settings: scale 0 to 100, 0 no effect, 100 complete control
In short: as §1

[11] = test system: pigweed (Amaranthus retroflexus); test: Test C preemergence; settings: scale 0 to 100, 0 no effect, 100 complete control
In short: as §1

[12] = test system: oilseed rape (Brassica napus); test: Test C preemergence; settings: scale 0 to 100, 0 no effect, 100 complete control
In short: as §1

[13] = test system: morningglory (Ipomoea coccinea); test: Test C preemergence; settings: scale 0 to 100, 0 no effect, 100 complete control
In short: as §1

[14] = test system: velvetleaf (Abutilon theophrasti); test: Test C preemergence; settings: scale 0 to 100, 0 no effect, 100 complete control
In short: as §1

soybean (Glycine max) = test: Test C preemergence; settings: scale 0 to 100, 0 no effect, 100 complete control
In short: as §1

[15] = test system: blackgrass (Alopecurus myosuroides); test: Test C preemergence; settings: scale 0 to 100, 0 no effect, 100 complete control
In short: as §1

CN1C[C@H](c2cccc(C(F)(F)F)c2)[C@@H](C(=O)Nc2cccnc2F)C1=O [Compound 1397]
pest or weed control at 15.625 g/ha ([1]; Amaranthus retroflexus, post-emergence, 312 h, 15.625 g ai/ha, evaluated after 13 days (100=total damage to plant; 0=no damage to plant), read-out: Pigweed, Redroot damage rating): 0%
pest or weed control at 62.5 g/ha ([1]; Amaranthus retroflexus, post-emergence, 312 h, 62.5 g ai/ha, evaluated after 13 days, read-out: Pigweed, Redroot damage rating (100=total damage to plant; 0=no damage to plant)): 30%
pest or weed control at 250 g/ha ([1]; Amaranthus retroflexus, post-emergence, 312 h, 250 g ai/ha, evaluated after 13 days, read-out: damage to plant, Pigweed, Redroot (100=total damage to plant; 0=no damage to plant)): 60%

CN1CC(c2cccc(OC(F)(F)C(F)F)c2)C(C(=O)Nc2ccccc2C(F)(F)F)C1=O (stereo not drawn) [Compound 431]
Plant response rating, Nutsedge, Yellow ([2]; 31 g ai/ha): 0
Plant response rating, Nutsedge, Yellow ([2]; 62 g ai/ha): 0
Plant response rating, Nutsedge, Yellow ([2]; 125 g ai/ha): 0
Plant response rating, Nutsedge, Yellow ([2]; 250 g ai/ha): 0
Plant response rating, Johnsongrass ([3]; 31 g ai/ha): 70
Plant response rating, Johnsongrass ([3]; 62 g ai/ha): 75
Plant response rating, Johnsongrass ([3]; 125 g ai/ha): 85
Plant response rating, Johnsongrass ([3]; 250 g ai/ha): 90
Plant response rating, Ragweed ([4]; 31 g ai/ha): 50
Plant response rating, Ragweed ([4]; 62 g ai/ha): 40
Plant response rating, Ragweed ([4]; 125 g ai/ha): 40
Plant response rating, Ragweed ([4]; 250 g ai/ha): 60
Plant response rating, Crabgrass, Large ([5]; 31 g ai/ha): 98
Plant response rating, Crabgrass, Large ([5]; 62 g ai/ha): 100
Plant response rating, Crabgrass, Large ([5]; 125 g ai/ha): 100
Plant response rating, Crabgrass, Large ([5]; 250 g ai/ha): 100
Plant response rating, Galium ([6]; 31 g ai/ha): 95
Plant response rating, Galium ([6]; 62 g ai/ha): 90
Plant response rating, Galium ([6]; 125 g ai/ha): 100
Plant response rating, Galium ([6]; 250 g ai/ha): 90
Plant response rating, Ryegrass, Italian ([7]; 62 g ai/ha): 10
Plant response rating, Ryegrass, Italian ([7]; 125 g ai/ha): 15
Plant response rating, Ryegrass, Italian ([7]; 250 g ai/ha): 70
Plant response rating, Lambsquarters ([8]; 31 g ai/ha): 10
Plant response rating, Lambsquarters ([8]; 62 g ai/ha): 40
Plant response rating, Lambsquarters ([8]; 125 g ai/ha): 50
Plant response rating, Lambsquarters ([8]; 250 g ai/ha): 65
Plant response rating, Wheat ([9]; 62 g ai/ha): 5
Plant response rating, Wheat ([9]; 125 g ai/ha): 70
Plant response rating, Wheat ([9]; 250 g ai/ha): 90
Plant response rating, Corn (corn (Zea mays); 31 g ai/ha): 0
Plant response rating, Corn (corn (Zea mays); 62 g ai/ha): 35
Plant response rating, Corn (corn (Zea mays); 125 g ai/ha): 50
Plant response rating, Corn (corn (Zea mays); 250 g ai/ha): 65
Plant response rating, Barnyardgrass ([10]; 31 g ai/ha): 90
Plant response rating, Barnyardgrass ([10]; 62 g ai/ha): 95
Plant response rating, Barnyardgrass ([10]; 125 g ai/ha): 95
Plant response rating, Barnyardgrass ([10]; 250 g ai/ha): 98
Plant response rating, Pigweed ([11]; 31 g ai/ha): 40
Plant response rating, Pigweed ([11]; 62 g ai/ha): 60
Plant response rating, Pigweed ([11]; 125 g ai/ha): 75
Plant response rating, Pigweed ([11]; 250 g ai/ha): 85
Plant response rating, Oilseed Rape ([12]; 31 g ai/ha): 10
Plant response rating, Oilseed Rape ([12]; 62 g ai/ha): 60
Plant response rating, Oilseed Rape ([12]; 125 g ai/ha): 85
Plant response rating, Oilseed Rape ([12]; 250 g ai/ha): 90
Plant response rating, Morningglory ([13]; 31 g ai/ha): 0
Plant response rating, Morningglory ([13]; 62 g ai/ha): 10
Plant response rating, Morningglory ([13]; 125 g ai/ha): 10
Plant response rating, Morningglory ([13]; 250 g ai/ha): 10
Plant response rating, Velvetleaf ([14]; 62 g ai/ha): 25
Plant response rating, Velvetleaf ([14]; 125 g ai/ha): 40
Plant response rating, Velvetleaf ([14]; 250 g ai/ha): 30
Plant response rating, Soybean (soybean (Glycine max); 125 g ai/ha): 0
Plant response rating, Blackgrass ([15]; 31 g ai/ha): 60
Plant response rating, Blackgrass ([15]; 62 g ai/ha): 85
Plant response rating, Blackgrass ([15]; 125 g ai/ha): 90
Plant response rating, Blackgrass ([15]; 250 g ai/ha): 98

CN1C[C@H](c2ccc(C(F)(F)F)cc2)[C@@H](C(=O)Nc2cccc(F)n2)C1=O [Compound 1400]
Pigweed, Redroot damage rating ([1]; 15.625 g ai/ha, evaluated after 13 days (100=total damage to plant; 0=no damage to plant)): 20
Pigweed, Redroot damage rating (100=total damage to plant; 0=no damage to plant) ([1]; 62.5 g ai/ha, evaluated after 13 days): 50
damage to plant, Pigweed, Redroot (100=total damage to plant; 0=no damage to plant) ([1]; 250 g ai/ha, evaluated after 13 days): 60

CN1CC(c2cccc(OC(F)(F)C(F)F)c2)C(C(=O)Nc2ccc(F)c(F)c2F)C1=O (stereo not drawn) [Compound 429]
Plant response rating, Nutsedge, Yellow ([2]; 31 g ai/ha): 0
Plant response rating, Nutsedge, Yellow ([2]; 62 g ai/ha): 0
Plant response rating, Nutsedge, Yellow ([2]; 125 g ai/ha): 0
Plant response rating, Nutsedge, Yellow ([2]; 250 g ai/ha): 0
Plant response rating, Johnsongrass ([3]; 31 g ai/ha): 75
Plant response rating, Johnsongrass ([3]; 62 g ai/ha): 95
Plant response rating, Johnsongrass ([3]; 125 g ai/ha): 95
Plant response rating, Johnsongrass ([3]; 250 g ai/ha): 90
Plant response rating, Ragweed ([4]; 31 g ai/ha): 0
Plant response rating, Ragweed ([4]; 62 g ai/ha): 40
Plant response rating, Ragweed ([4]; 125 g ai/ha): 75
Plant response rating, Ragweed ([4]; 250 g ai/ha): 75
Plant response rating, Crabgrass, Large ([5]; 31 g ai/ha): 95
Plant response rating, Crabgrass, Large ([5]; 62 g ai/ha): 98
Plant response rating, Crabgrass, Large ([5]; 125 g ai/ha): 98
Plant response rating, Crabgrass, Large ([5]; 250 g ai/ha): 98
Plant response rating, Galium ([6]; 31 g ai/ha): 100
Plant response rating, Galium ([6]; 62 g ai/ha): 100
Plant response rating, Galium ([6]; 125 g ai/ha): 100
Plant response rating, Galium ([6]; 250 g ai/ha): 100
Plant response rating, Ryegrass, Italian ([7]; 62 g ai/ha): 85
Plant response rating, Ryegrass, Italian ([7]; 125 g ai/ha): 85
Plant response rating, Ryegrass, Italian ([7]; 250 g ai/ha): 65
Plant response rating, Lambsquarters ([8]; 31 g ai/ha): 60
Plant response rating, Lambsquarters ([8]; 62 g ai/ha): 75
Plant response rating, Lambsquarters ([8]; 125 g ai/ha): 75
Plant response rating, Lambsquarters ([8]; 250 g ai/ha): 85
Plant response rating, Wheat ([9]; 62 g ai/ha): 60
Plant response rating, Wheat ([9]; 125 g ai/ha): 70
Plant response rating, Wheat ([9]; 250 g ai/ha): 60
Plant response rating, Corn (corn (Zea mays); 31 g ai/ha): 0
Plant response rating, Corn (corn (Zea mays); 62 g ai/ha): 40
Plant response rating, Corn (corn (Zea mays); 125 g ai/ha): 65
Plant response rating, Corn (corn (Zea mays); 250 g ai/ha): 90
Plant response rating, Barnyardgrass ([10]; 31 g ai/ha): 85
Plant response rating, Barnyardgrass ([10]; 62 g ai/ha): 95
Plant response rating, Barnyardgrass ([10]; 125 g ai/ha): 95
Plant response rating, Barnyardgrass ([10]; 250 g ai/ha): 98
Plant response rating, Pigweed ([11]; 31 g ai/ha): 75
Plant response rating, Pigweed ([11]; 62 g ai/ha): 85
Plant response rating, Pigweed ([11]; 125 g ai/ha): 90
Plant response rating, Pigweed ([11]; 250 g ai/ha): 100
Plant response rating, Oilseed Rape ([12]; 31 g ai/ha): 80
Plant response rating, Oilseed Rape ([12]; 62 g ai/ha): 80
Plant response rating, Oilseed Rape ([12]; 125 g ai/ha): 90
Plant response rating, Oilseed Rape ([12]; 250 g ai/ha): 90
Plant response rating, Morningglory ([13]; 31 g ai/ha): 35
Plant response rating, Morningglory ([13]; 62 g ai/ha): 30
Plant response rating, Morningglory ([13]; 125 g ai/ha): 20
Plant response rating, Morningglory ([13]; 250 g ai/ha): 60
Plant response rating, Velvetleaf ([14]; 62 g ai/ha): 40
Plant response rating, Velvetleaf ([14]; 125 g ai/ha): 30
Plant response rating, Velvetleaf ([14]; 250 g ai/ha): 45
Plant response rating, Soybean (soybean (Glycine max); 125 g ai/ha): 0
Plant response rating, Soybean (soybean (Glycine max); 250 g ai/ha): 10
Plant response rating, Blackgrass ([15]; 31 g ai/ha): 70
Plant response rating, Blackgrass ([15]; 62 g ai/ha): 90
Plant response rating, Blackgrass ([15]; 125 g ai/ha): 90
Plant response rating, Blackgrass ([15]; 250 g ai/ha): 95
